Laboratory results published in PMC8619434 (Viruses, 2021).
Structures can show the parent of a compound that is named as a salt. *1 amine or outer side, *2 acyl side, *3 side chain or, on linkers, in order; H or OH if unused. Where a SMILES comes first, the peptide text is derived from it. Bridges are numbered along the chain shown (N, C = ends). [ ]: non-standard residue; d: D form. The star is where a group is joined. pTerphenylCO(4''-OnC5H11) = CCCCCOc1ccc(-c2ccc(-c3ccc(C(=O)*)cc3)cc2)cc1; Orn(4R-OH,5R-OH) = O=C([C@H](C[C@@H](O)[C@@H](O)N[*:3])N[*:1])[*:2]; hTyr(3S-OH,4S-OH) = N[C@H](C(=O)O)[C@H](O)[C@@H](O)c1ccc(O)cc1; Pro(3S-OH,4S-Me) = C[C@H]1CN[C@H](C(=O)O)[C@H]1O; Hyp = O=C(O)[C@@H]1C[C@@H](O)CN1

Experiments:
in vitro = conditions: human
VSV-G pseudovirus = assay: microbe, parasite or virus in culture; assay type: cell-based, vesicular stomatitis virus; conditions: for activity at 10 µM: Pseudovirus, 293T/ACE2, read-out: % Infectivity of VSV-G pv
[1] = test system: SARS-CoV-2 spike protein pseudovirus; assay: microbe, parasite or virus in culture; assay type: cell-based; conditions: for activity at 10 µM: 293T/ACE2, 48 h, read-out: % Infectivity of SARS-2-Spike pv

Compound | viability at 10 µM (in vitro) [%] | activity at 10 µM (VSV-G pseudovirus) [%] | further results
COc1c2ccoc2cc2oc(=O)ccc12 [5-methoxypsoralen] | 111 | – | –
COc1c2occc2cc2ccc(=O)oc12 [8-methoxypsoralen] | 105 | – | –
CN1CCC(=C2c3ccccc3CCn3c(C=O)cnc32)CC1 [Alcaftadine] | 97 | – | –
O=C1c2c(O)cccc2C([C@@H]2O[C@H](CO)[C@@H](O)[C@H](O)[C@H]2O)c2cc(CO)cc(O)c21 (some centres unmarked) [Aloin] | 103 | – | –
CCOC(=O)c1c(CSc2ccccc2)n(C)c2cc(Br)c(O)c(CN(C)C)c12 [Arbidol] | – | 62 | activity at 10 µM [1]: 18%
CNC(=O)c1ccccc1Sc1ccc2c(/C=C/c3ccccn3)n[nH]c2c1 [Axitinib (AG 013736), Axitinib] | – | 2 | viability (in vitro; % Viability of SARS-2-Spike pv): 69%; activity at 10 µM [1]: 1%
NC(=O)N1c2ccccc2C=Cc2ccccc21 [Carbamazepine] | 105 | – | –
CC(C(=O)O)c1ccc2c(c1)[nH]c1ccc(Cl)cc12 (centres unmarked) [Carprofen] | 103 | – | –
COc1ccccc1OCCNCC(O)COc1cccc2[nH]c3ccccc3c12 (centres unmarked) [Carvedilol] | 81 | – | –
CC(C)/N=c1\cc2n(-c3ccc(Cl)cc3)c3ccccc3nc-2cc1Nc1ccc(Cl)cc1 [Clofazimine] | 77 | – | –
CN1CCN(C2=Nc3cc(Cl)ccc3Nc3ccccc32)CC1 [Clozapine] | 103 | – | –
C=C1CC[C@H]2C(=C)CC[C@H]3C(=C)C(=O)O[C@@H]3[C@@H]12 [Dehydrocostus Lactone] | 90 | – | –
CC(=O)Oc1cccc2c1C(=O)c1c(OC(C)=O)cc(C(=O)O)cc1C2=O [Diacerein] | 126 | – | –
c1ccc2c(c1)sc1ccccc12 [Dibenzothiophene] | 102 | – | –
C[C@]12CCC(=O)C=C1[C@@H]1C[C@@H]1[C@H]1[C@@H]3[C@@H]4C[C@@H]4[C@@]4(CCC(=O)O4)[C@@]3(C)CC[C@@H]12 [Drospirenone] | – | 381 | –
NC1=NCC2c3ccccc3Cc3ccccc3N12 (centres unmarked) [Epinastine HCl] | – | – | viability at 10 µM (in vitro; % viability (Table S3)): 94%
CC(=O)O[C@H]1Cc2ccccc2N(C(N)=O)c2ccccc21 [Eslicarbazepine acetate] | 102 | – | –
CCc1cccc2c3c([nH]c12)C(CC)(CC(=O)O)OCC3 (centres unmarked) [Etodolac] | 100 | – | –
COc1cc2c(Oc3ccc(NC(=O)C4(C(=O)Nc5ccc(F)cc5)CC4)cc3F)ccnc2cc1OCCCN1CCOCC1 [Foretinib (GSK1363089), Foretinib] | – | 11 | viability (in vitro; % Viability of SARS-2-Spike pv): 63%; activity at 10 µM [1]: 10%

Compound | viability at 10 µM (in vitro) [%] | activity at 10 µM (VSV-G pseudovirus) [%] | further results
c1cn2cc(-c3ccc4cn[nH]c4c3)nc(Nc3ccc(N4CCOCC4)cc3)c2n1 [GS-9973] | – | 1 | viability (in vitro): 69%; activity at 10 µM [1]: 0%
CN1CCC(=C2c3ccccc3CC(=O)c3sccc32)CC1 [Ketotifen Fumarate] | 97 | – | –
Cc1cc(Nc2cc(CN3CCOCC3)c3nc(C)c(Cc4ccc(Cl)cc4F)n3n2)n[nH]1 [LY2784544] | – | 1 | viability (in vitro; % Viability of SARS-2-Spike pv): 76%; activity at 10 µM [1]: 2%
CN1CCN(C2=Nc3ccccc3Oc3ccc(Cl)cc32)CC1 [Loxapine Succinate] | 94 | – | –
COc1cc(Nc2ncc3c(n2)-c2ccc(Cl)cc2C(c2c(F)cccc2OC)=NC3)ccc1C(=O)O [MLN8237 (Alisertib), Alisertib] | 63 | 18 | viability (in vitro; % Viability of SARS-2-Spike pv): 63 to 83%; activity at 10 µM [1]: 15 to 18%
CN1CCCCC1CCN1c2ccccc2Sc2ccc([S+](C)[O-])cc21 (centres unmarked) [Mesoridazine besylate] | – | – | viability at 10 µM (in vitro; % viability (Table S3)): 97%
CN1CCN2c3ncccc3Cc3ccccc3C2C1 (centres unmarked) [Mirtazapine] | 104 | – | –
Cc1ccnc2c1NC(=O)c1cccnc1N2C1CC1 [Nevirapine] | 103 | – | –
Cc1cc2c(s1)Nc1ccccc1N=C2N1CCN(C)CC1 [Olanzapine] | 106 | – | –
CN(C)CC/C=C1/c2ccccc2COc2ccc(CC(=O)O)cc21 [Olopatadine HCl] | 99 | – | –
NC(=O)N1c2ccccc2CC(=O)c2ccccc21 [Oxcarbazepine] | 109 | – | –
CC(C(=O)O)c1ccc2c(c1)Cc1cccnc1O2 (centres unmarked) [Pranoprofen] | 114 | – | –
OCCOCCN1CCN(C2=Nc3ccccc3Sc3ccccc32)CC1 [Quetiapine Fumarate] | – | – | viability at 10 µM (in vitro; % viability (Table S3)): 96%
CCC(=O)NCC[C@@H]1CCc2ccc3c(c21)CCO3 [Ramelteon] | 99 | – | –
Nc1c2c(nc3ccccc13)CCCC2 [Tacrine hydrochloride] | – | – | viability at 10 µM (in vitro; % viability (Table S3)): 97%
CC1CCC2(OC1)OC1CC3C4CCC5CC(OC6OC(CO)C(O)C(O)C6OC6OC(CO)C(O)C(O)C6O)CCC5(C)C4CCC3(C)C1C2C (centres unmarked) [Timosaponin A3] | – | 85 | viability (in vitro; % Viability of SARS-2-Spike pv): 55%; activity at 10 µM [1]: 5%
CC(=O)OCC[N+](C)(C)C [acetylcholine] | – | – | % Infectivity of SARS-2-Spike pv [1]: did not enhance infectivity
Clc1ccc2c(c1)C(N1CCNCC1)=Nc1ccccc1O2 [amoxapine] | – | 95 | viability (in vitro; % Viability of SARS-2-Spike pv): 103%; activity at 10 µM [1]: 20%
CCCCCOc1ccc(-c2ccc(-c3ccc(C(=O)N[C@H]4C[C@@H](O)[C@@H](O)NC(=O)[C@@H]5[C@@H](O)[C@@H](C)CN5C(=O)[C@H]([C@@H](C)O)NC(=O)[C@H]([C@H](O)[C@@H](O)c5ccc(O)cc5)NC(=O)[C@@H]5C[C@@H](O)CN5C(=O)[C@H]([C@@H](C)O)NC4=O)cc3)cc2)cc1 [anidulafungin] ({pTerphenylCO(4''-OnC5H11)}-[Orn(4R-OH,5R-OH)]T[Hyp][hTyr(3S-OH,4S-OH)]T[Pro(3S-OH,4S-Me)]; lactam 1-C) | – | 125 | viability (in vitro; % Viability of SARS-2-Spike pv): 109%; activity at 10 µM [1]: 19%

Compound | viability at 10 µM (in vitro) [%] | activity at 10 µM (VSV-G pseudovirus) [%] | further results
CN1CCCC(n2nc(Cc3ccc(Cl)cc3)c3ccccc3c2=O)CC1 (centres unmarked) [azelastine HCl] | – | 81 | viability (in vitro; % Viability of SARS-2-Spike pv): 98%; activity at 10 µM [1]: 4%; IC50 ([1]; 293T/ACE2, read-out: IC50 of SARS-CoV-2-S pseudovirus infectivity): 4.84 µM
CC[C@H]1OC(=O)[C@H](C)[C@@H](O[C@H]2C[C@@](C)(OC)[C@@H](O)[C@H](C)O2)[C@H](C)[C@@H](O[C@@H]2O[C@H](C)C[C@H](N(C)C)[C@H]2O)[C@](C)(O)C[C@@H](C)CN(C)[C@H](C)[C@@H](O)[C@]1(C)O [azithromycin dihydrate] | – | 100 | viability (in vitro; % Viability of SARS-2-Spike pv): 94%; activity at 10 µM [1]: 4%
CN1[C@@H]2CC[C@H]1C[C@@H](OC(c1ccccc1)c1ccccc1)C2 [benztropine mesylate] | – | 93 | viability (in vitro; % Viability of SARS-2-Spike pv): 96%; activity at 10 µM [1]: 10%
COc1ccc2cc1Oc1ccc(cc1)C[C@H]1c3c(cc4c(c3Oc3cc5c(cc3OC)CCN(C)[C@@H]5C2)OCO4)CCN1C [cepharanthine] | – | 1 | activity at 10 µM [1]: 1%
Clc1ccc2c(c1)CCc1cccnc1C2=C1CCNCC1 [desloratadine] | – | 82 | viability (in vitro; % Viability of SARS-2-Spike pv): 99%
COc1cc2c(cc1OC)CN(CCc1ccc(NC(=O)c3cccc4c(=O)c5cccc(OC)c5[nH]c34)cc1)CC2 [elacridar] | 97 | – | –
C[C@]12CC[C@@H]3c4ccc(O)cc4CC[C@H]3[C@@H]1CC[C@@H]2O [estradiol] | – | – | % Infectivity of SARS-2-Spike pv [1]: did not enhance infectivity
C[C@]12CC[C@@H]3c4ccc(O)cc4CC[C@H]3[C@@H]1C[C@@H](O)[C@@H]2O [estriol] | – | – | % Infectivity of SARS-2-Spike pv [1]: did not enhance infectivity
CCOC(=O)c1ncn2c1CN(C)C(=O)c1cc(F)ccc1-2 [flumazenil] | 104 | – | –
NCCc1c[nH]cn1 [histamine] | – | – | % Infectivity of SARS-2-Spike pv [1]: did not enhance infectivity
NC(=O)N1CCC(CC(=O)N2CCC([C@H]3c4ncc(Br)cc4CCc4cc(Cl)cc(Br)c43)CC2)CC1 [lonafarnib] | 111 | – | –
CN1CCN2c3ccccc3Cc3ccccc3C2C1 (centres unmarked) [mianserin Hcl] | 100 | – | –
C=C1C(=O)[C@]23[C@H](O)[C@H]1CC[C@H]2[C@@]12CO[C@]3(O)[C@@H](O)[C@@H]1C(C)(C)CC[C@@H]2O [oridonin] | – | 37 | activity at 10 µM [1]: 9%
CC(=O)c1c(C)c2cnc(Nc3ccc(N4CCNCC4)cn3)nc2n(C2CCCC2)c1=O.Cl [palbociclib HCl] | – | – | % Infectivity of VSV-G pv (VSV-G pseudovirus): 63%
CC(=O)c1c(C)c2cnc(Nc3ccc(N4CCNCC4)cn3)nc2n(C2CCCC2)c1=O [palbociclib isethionate] | – | 32 | –
CC(=O)[C@H]1CC[C@H]2[C@@H]3CCC4=CC(=O)CC[C@]4(C)[C@H]3CC[C@]12C [progesterone] | – | – | % Infectivity of SARS-2-Spike pv [1]: did not enhance infectivity
NCCc1c[nH]c2ccc(O)cc12 [serotonin] | – | – | % Infectivity of SARS-2-Spike pv [1]: did not enhance infectivity
COc1ccc2cc1Oc1ccc(cc1)C[C@H]1c3cc(c(OC)cc3CCN1C)Oc1c(OC)c(OC)cc3c1[C@H](C2)N(C)CC3 [tetrandrine] | – | 39 | activity at 10 µM [1]: 1%
Cc1cn([C@H]2C[C@H](N=[N+]=[N-])[C@@H](CO)O2)c(=O)[nH]c1=O [zidovudine] | – | – | % Infectivity of VSV-G pv (VSV-G pseudovirus): potently inhibited
